Paper PMC8879119, “α-Glucosidase Inhibitory Activity and Anti-Adipogenic Effect of Compounds from Dendrobium delacourii” (Molecules, 2022)
Like-named read-outs stand apart in the source and are kept apart here.

Key:
[1] = target: T1, α-glucosidase (Saccharomyces cerevisiae, UniProt P53341); experiment: biochemical
T1 construct: purchased Sigma-Aldrich (St. Louis, MO, USA)
Protocol: In this study, each compound was initially tested at 100 μg/mL.
(§1) Mass spectra were recorded on a Bruker micro TOF mass spectrometer (ESI-MS). NMR spectra were recorded on a Bruker Avance DPX-300FT-NMR spectrometer or a Bruker Avance III HD 500 NMR spectrometer. Vacuum-liquid column chromatography (VLC) and column chromatography (CC) were performed on silica gel 60 (Merck, Kieselgel 60, 70–320 mesh), silica gel 60 (Merck, Kieselgel 60, 230–400 mesh) (Darmstadt, Germany), and Sephadex LH-20 (25–100 μm, Pharmacia Fine Chemical Co. Ltd.) (Piscataway, NJ, USA). […] Mouse embryonic preadipocyte 3T3-L1 cells were acquired from the American Type Culture Collection (ATCC, Manassas, VA, USA). Dulbecco’s modified Eagle medium (DMEM), fetal bovine serum (FBS), penicillin/streptomycin, and L-glutamine were obtained from Gibco (Gaithersburg, MA, USA). Yeast alpha-glucosidase enzyme, p-nitrophenol-α-D-glucopyranoside, isobutylmethylxanthine, dexamethasone, MTT (methyl-thiazolyl-diphenyl-tetrazolium bromide), Hoechst33342, propidium iodide, dimethylsulfoxide (DMSO), and oil red O were purchased from Sigma-Aldrich (St. Louis, MO, USA). Insulin was obtained from Himedia (Mumbai, India). The radio-immunoprecipitation assay (RIPA) buffer, chemiluminescent substrates, and the bicinchoninic acid (BCA) protein assay kit were from Thermo Scientific (Rockford, IL, USA), and the nitrocellulose membranes were from Bio-Rad Laboratories (Hercules, CA, USA). All primary and secondary antibodies were purchased from Cell Signaling Technology (Danvers, MA, USA). Oxyresveratrol was provided by Prof. Kittisak Likhitwitayawuid.
The assay was based on the inhibition in the sample of α-glucosidase enzyme, which can release p-nitrophenol (PNP) from p-nitrophenyl-α-D-glucoside (PNPG) by hydrolysis. […] For IC50 determination, twofold serial dilution was performed for each sample. Each experiment was accomplished in triplicate. Data are expressed as mean ± SD.

[2] = tested on: 3T3-L1 cells; experiment: MTT viability assay in preadipocytes; format: cell-based, Mouse; conditions: 20 µM, 48 h
Protocol: To evaluate the effect of D. delacourii extracts on cell viability, 3T3-L1 preadipocytes were seeded into 96-well plates at density of 2 × 10^3 cells/well and allowed to attach overnight at 37 °C. Then, the cells were further cultured with extracts (5 μg/mL), compounds (20 μM), or left untreated for 48 h before adding of 0.45 mg/mL MTT solution to assess cell viability. After incubation for 3 h at 37 °C and kept from light, the optical density (OD) of the purple formazan product dissolved in DMSO was measured at 570 nm using a microplate reader (Anthros, Durham, NC, USA). The relative OD ratio of treated to non-treated cells was presented as percentage cell viability.

[3] = tested on: p-AMPKβ1; experiment: Western blot of p-AMPKβ1 in differentiating 3T3-L1 cells; format: cell-based, Mouse; conditions: 20 µM, 38 h and 48 h
Description: (§2) Recent reports indicate that the downregulation of PPARγ and C/EBPα are correlated with the activation of AMPKα/β and ACC [43]. […] The increased expression level of p-ACC/ACC (Figure 5b), p-AMPKα/AMPKα (Figure 5c), and p-AMPKβ1/AMPKβ1/2 (Figure 5f) was correlated with suppression of PPARγ and C/EBPα protein expression (Figure 4e) as well as lipid accumulation in differentiated 3T3-L1 cells (Figure 4a). The results presented in this study correspond with the evidence of the stimulation of AMPK and ACC protein being associated with the inhibition of 3T3-L1 adipocyte differentiation.
(§3) After the indicated treatment, 3T3-L1 cells were washed with phosphate-buffered saline (PBS, pH 7.4), then the cell membranes were broken using RIPA buffer supplemented with a protease inhibitor cocktail. After incubation on ice for 45 min, the cell lysates were centrifuged at 12,000 rpm at 4 °C for 15 min to collect the clear supernatant containing cellular protein, which was measured for total protein content using a BCA assay kit. The total protein (30 µg) from each sample was loaded and separated onto 10% sodium dodecyl sulfate-polyacrylamide gel electrophoresis (SDS-PAGE). […] The reactive protein signals exposed with chemiluminescent substrates were captured and quantified using Chemiluminescent ImageQuant LAS 4000 (GE Healthcare Bio-Sciences AB, Björkgatan, Uppsala, Sweden).

[4] = tested on: p-GSK3β/GSK3β; experiment: Western blot of p-GSK3β/GSK3β in differentiating 3T3-L1 cells; format: cell-based, Mouse; conditions: 20 µM, 38–48 h
Description: Due to the expression of adipogenic transcription factors also modulated via Akt/GSK3β [46, 47, 48], the alteration of the p-GSK3β/GSK3β level was additionally examined in densifloral B-treated 3T3-L1 cells. The phosphorylation by p-Akt results in the inactivation of the GSK3β degradation complex following the initiation of targeted gene expression.
as §3

[5] = tested on: 3T3-L1 cells; experiment: adipocyte differentiation / lipid accumulation by oil red O staining; format: cell-based, Mouse; conditions: for IC50: Mus musculus, 3T3-L1, 0–50 µM, oil red O staining, 3T3-L1 cells; for reduction in oil red O staining: differentiated 3T3-L1 cells
Protocol: Mouse embryonic preadipocyte 3T3-L1 cells were cultured in DMEM containing 10% FBS, 100 units/mL of penicillin/streptomycin, and 2 mmol/L of L-glutamine under humidified conditions of 5% CO2 at 37 °C until 70–80% confluence was reached. For differentiation into adipocyte, preadipocyte 3T3-L1 cells were incubated with differentiation media composed of 10% FBS, 0.5 mM isobutylmethylxanthine, 1 μM dexamethasone, and 5 µg/mL insulin in DMEM with or without test compound for 2 days. Then, the differentiation media was replaced with culture media containing 5 µg/mL of insulin. After further incubation for 2 days, the cells were maintained in complete DMEM, which was changed every 2 days until adipocytes containing lipid droplets were observed under microscope.
The lipid droplets presenting in differentiated adipocytes were detected via oil red O staining. After the differentiation process, 3T3-L1 cells were fixed with 10% formalin for 45 min and further incubated with oil red O solution at room temperature for 1 h. After washing with 60% isopropanol for three times, oil red O-stained cells were captured using a Nikon Ts2 inverted optical microscope (Tokyo, Japan). For quantification, cellular oil red O was extracted using absolute isopropanol for measurement of OD at 570 nm by microplate reader (Anthros, Durham, NC, USA). The percentage of oil red O staining was calculated relative to the total protein content determined by BCA assay.

[6] = tested on: p-Akt; experiment: Western blot of p-Akt in differentiating 3T3-L1 cells; format: cell-based, Mouse; conditions: 20 µM, 38–48 h
Description: as §2, §3

[7] = tested on: PPARγ; experiment: Western blot of PPARγ in differentiating 3T3-L1 cells; format: cell-based, Mouse; conditions: 20 µM, 38 h and 48 h, versus untreated control
Protocol: (§4) Adipogenesis involves a network of transcription factors that contribute to adipocyte differentiation and lipid accumulation. Although the adipogenic gene CCAAT-enhancer-binding protein beta (C/EBPβ) is expressed soon after exposure to the adipogenic inducers, the upregulation of PPARγ and C/EBPα is acquired after 36–48 h of the induction. In this regard, the translational level of PPARγ and C/EBPα was examined to elucidate the anti-adipogenic mechanism in preadipocyte 3T3-L1 cells cultured with 20 µM densifloral B (3) at both early (38 h) and late (48 h) stage. Western blot analysis indicated the prolong expression of PPARγ and C/EBPα, the adipogenic transcription factors, in 3T3-L1 cells from early until late stage of adipogenic process. […]
as §3, with “kit.” for “kit. The total protein (30 µg) from each sample was loaded and separated onto 10% sodium dodecyl sulfate-polyacrylamide gel electrophoresis (SDS-PAGE).”

[8] = tested on: C/EBPα; experiment: Western blot of C/EBPα in differentiating 3T3-L1 cells; format: cell-based, Mouse; conditions: 20 µM, 38 h and 48 h, versus untreated control
Protocol: as §4
as §3, with “kit.” for “kit. The total protein (30 µg) from each sample was loaded and separated onto 10% sodium dodecyl sulfate-polyacrylamide gel electrophoresis (SDS-PAGE).”

[9] = tested on: p-AMPKα; experiment: Western blot of p-AMPKα in differentiating 3T3-L1 cells; format: cell-based, Mouse; conditions: 20 µM, 38 h and 48 h
Description: as §2, §3

[10] = tested on: p-ACC; experiment: Western blot of p-ACC in differentiating 3T3-L1 cells; format: cell-based, Mouse; conditions: 20 µM, 38 h and 48 h
Description: as §2, §3

[11] = target: T1, α-glucosidase; experiment: biochemical; format: biochemical; conditions: for type of enzyme inhibition: Lineweaver–Burk plots; for Ki: from secondary plot of slopes versus inhibitor concentration, read-out: Ki (inhibitor constant)
Protocol: The experiment was performed by using Lineweaver–Burk plots of the reciprocal of velocity (1/V) against the reciprocal of substrate concentration (1/[S]) (Figure 2). […] A secondary plot of each compound was then constructed to evaluate the inhibition constant (Ki).
as §1
The kinetic study of enzyme inhibition was analyzed by the double reciprocal Lineweaver–Burk plot (1/V versus 1/[S]). […] The reaction was monitored every 5 min for a total time of 25 min and measured at 405 nm by a microplate reader. Each experiment was performed in triplicate. The Ki value was estimated by constructing a secondary plot which is plotted by the slopes of the double-reciprocal lines versus inhibitor concentration.

[12] = tested on: 3T3-L1 cells; experiment: cell death detection by Hoechst33342/propidium iodide costaining; format: cell-based; conditions: 20 µM, 48 h
Protocol: The cytotoxicity of D. delacourii extracts was confirmed via cell death detection using costaining of Hoechst33342 and propidium iodide. After 48 h incubation with indicated treatment, the cells were further incubated with nuclear staining solution containing 2 μg/mL of Hoechst33342 and 1 μg/mL of propidium iodide for 30 min. The mode of cell death was observed under a fluorescence microscope (Olympus IX51 with DP70, Olympus Corp., Shinjuku-ku, Tokyo, Japan).

[13] = read-out: α-Glucosidase inhibitory activity IC50
[14] = inhibitor dose 12 μM, substrate 0.25-2.0 mM

T1 sequence (P53341 whole entry): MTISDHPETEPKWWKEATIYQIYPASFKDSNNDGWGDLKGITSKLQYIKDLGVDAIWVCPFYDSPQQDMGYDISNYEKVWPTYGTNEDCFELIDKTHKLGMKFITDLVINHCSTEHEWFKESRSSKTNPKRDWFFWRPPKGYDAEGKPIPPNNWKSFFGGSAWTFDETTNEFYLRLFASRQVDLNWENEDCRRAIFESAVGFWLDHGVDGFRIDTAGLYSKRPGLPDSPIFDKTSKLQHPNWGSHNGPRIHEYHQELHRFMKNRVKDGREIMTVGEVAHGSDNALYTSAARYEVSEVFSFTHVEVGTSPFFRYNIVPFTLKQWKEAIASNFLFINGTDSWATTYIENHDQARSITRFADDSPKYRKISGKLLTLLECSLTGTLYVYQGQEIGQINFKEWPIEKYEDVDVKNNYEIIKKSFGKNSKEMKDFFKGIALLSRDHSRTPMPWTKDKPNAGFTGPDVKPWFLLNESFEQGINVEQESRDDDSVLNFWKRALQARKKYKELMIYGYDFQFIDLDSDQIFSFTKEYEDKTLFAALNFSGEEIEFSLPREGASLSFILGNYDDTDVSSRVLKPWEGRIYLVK

COc1cc(O)cc2ccc3cccc(O)c3c12 [Moscatin (4), moscatin]
IC50 [1, 13]: 390 ± 9.8 µM

COC1=CC(=O)c2c(ccc3cc(O)ccc23)C1=O [Densifloral B (3), densifloral B]
viability / cytotoxicity in 3T3-L1 cells [2]: no cytotoxicity | phosphorylated AMPKβ1 (p-AMPKβ1) [3]: upregulated | p-GSK3β/GSK3β expression level [4]: significantly lessened | IC50 [5]: 14.8 ± 1.6 µM | reduction in oil red O staining ([5]; at 20 µM): ~65.2% | activated Akt (p-Akt) [6]: suppressed | expression level of PPARγ [7]: restrained | expression level of C/EBPα [8]: restrained | phosphorylated AMPKα (p-AMPKα) [9]: upregulated | phosphorylated ACC (p-ACC) [10]: upregulated

COc1cc(O)cc(CCc2ccc(O)c(OC)c2)c1 [Gigantol (6), gigantol]
IC50 [1, 13]: 191 ± 6.8 µM

COC1=CC(=O)C2=C(CCc3cc(O)ccc32)C1=O [Ephemeranthoquinone (2), ephemeranthoquinone]
viability / cytotoxicity in 3T3-L1 cells [2]: significantly decreased viability | reduction in oil red O staining ([5]; at 20 µM): approximately 64.7%

COc1cc(O)c2c(c1-c1c(OC)cc(O)c3c1CCc1cc(O)ccc1-3)CCc1cc(O)ccc1-2 [4,4′,7,7′-tetrahydroxy-2,2′-dimethoxy-9,9′,10,10′-tetrahydro-1,1′-biphenanthrene]
IC50 [1]: 18.4 ± 3.4 µM

COc1cc(O)c2c(c1)CCc1cc(O)c(-c3c(OC)cc(O)c4c3CCc3cc(O)ccc3-4)cc1-2 [Phoyunnanin C (11), phoyunnanin C]
IC50 [1, 13]: 12.6 ± 0.9 µM | type of enzyme inhibition [11]: non-competitive | Ki [11]: 5.97 µM | Vmax [11, 14]: 0.049 ∆OD/min | Vmax ([11]; inhibitor dose 24 μM, substrate 0.25-2.0 mM): 0.023 ∆OD/min

C[C@H]1O[C@H](O[C@H]2[C@H](O)[C@@H](O)[C@@H](O[C@H]3[C@H](O)[C@@H](O)C(O)O[C@@H]3CO)O[C@@H]2CO)[C@H](O)[C@@H](O)[C@@H]1N[C@H]1C=C(CO)[C@@H](O)[C@H](O)[C@H]1O (some centres unmarked) [Acarbose, acarbose, reference compound]
type of enzyme inhibition [11]: competitive type of inhibition | Km ([11]; inhibitor dose 465 μM): 4.17 mM | Vmax ([11]; inhibitor dose 465 μM): 0.10 ∆OD/min | Km ([11]; inhibitor dose 930 μM): 6.47 mM | Vmax ([11]; inhibitor dose 930 μM): 0.11 ∆OD/min

COc1cc(O)c2c(c1)CCc1cc(O)ccc1-2 [Lusianthridin (8), lusianthridin]
IC50 [1, 13]: 195 ± 9.6 µM

COc1cc(O)c2c(c1)CCc1cc(Oc3c(OC)cc(O)c4c3CCc3cc(O)ccc3-4)ccc1-2 [Phoyunnanin E (10), phoyunnanin E]
IC50 [1, 13]: 8.9 ± 0.8 µM | type of enzyme inhibition [11]: non-competitive | Ki [11]: 5.89 µM | Vmax [11, 14]: 0.049 ∆OD/min | Vmax ([11]; inhibitor dose 22 μM, substrate 0.25-2.0 mM): 0.024 ∆OD/min

Oc1cc(O)cc(/C=C/c2ccc(O)cc2O)c1 [oxyresveratrol, reference compound]
viability / cytotoxicity in 3T3-L1 cells [2]: no change | cell death [12]: no change | IC50 [5]: 21.1 ± 1.5 µM | oil red O staining percentage compared with control (in words) ([5]; at 20 µM): lower oil red O staining percentage
